This is an account of results in ChEMBL document CHEMBL5370669, “Isolation and Structure Determination of Akunolides, Macrolide Glycosides from a Marine Okeania sp. Cyanobacterium” (J Nat Prod, 2023).

Series [1] has as its system Trypanosoma brucei rhodesiense. Put plainly: Antitrypanosomal activity against blood stream form of Trypanosoma brucei rhodesiense IL-1501 assessed as growth inhibition incubated for 69 hrs by alamar blue staining based microplate fluorescence scanner analysis. The series is classed as functional, organism-based. The settings on record: IL-1501, 69 h. (In general: Resazurin is reduced to fluorescent resorufin, in cell work by metabolically active cells.)

Series [2] in a line: Growth inhibition of human WI-38 cells incubated for 72 hrs by MTT assay. It is filed as toxicity, cell-based. A general note: Tetrazolium dyes change colour on reduction, which living cells bring about.
Series [3] can be described thus: Selectivity ratio of IC50 for cytotoxicity against human WI-38 cells to IC50 for antitrypanosomal activity against Trypanosoma brucei rhodesiense IL-1501. The series is classed as toxicity, cell-based.

Turning to `C=CCCC/C=C/C=C/[C@H]1OC(=O)C[C@@H]2O[C@H](C[C@H](O)C[C@H](C)C[C@@H](O)C1(C)C)C[C@H](O[C@@H]1OC[C@@H](OC)[C@H](OC)[C@H]1O)C2(C)C`, in series [1], the IC50 (usually the concentration needed to halve the response being measured) amounted to 11 µM. In addition, it took 55 µM to reach half-maximal inhibition in series [2] (IC50 at 72 h). In addition, the selectivity ratio in series [3] is 5.

With `C=CCCC/C=C/C=C/[C@H]1OC(=O)C[C@@H]2O[C@H](C[C@H](O)C[C@H](C)C[C@@H](O)C1(C)C)C[C@H](O[C@@H]1OC[C@@H](OC)[C@H](O)[C@H]1O)C2(C)C`, the IC50 in series [1] worked out at 12 µM. This compound also returned an IC50 at 72 h in series [2] greater than 150 µM. Also, the selectivity ratio in series [3] is greater than 15.

On to `CCCCC/C=C/C=C/[C@H]1OC(=O)C[C@@H]2O[C@H](C[C@H](O)C[C@H](C)C[C@@H](O)C1(C)C)C[C@H](O[C@@H]1OC[C@@H](OC)[C@H](O)[C@H]1O)C2(C)C`, for which the IC50 in series [1] stood at 14 µM. This compound also yielded an IC50 at 72 h in series [2] of 49 µM.

On to `C#CCCC/C=C/C=C/[C@H]1OC(=O)C[C@@H]2O[C@H](C[C@H](O)C[C@H](C)C[C@@H](O)C1(C)C)C[C@H](O[C@@H]1OC[C@@H](OC)[C@H](OC)[C@H]1O)C2(C)C`, for which the IC50 in series [1] stood at 11 µM. Also, the IC50 at 72 h in series [2] is greater than 150 µM. Also, in series [3], the selectivity ratio was greater than 15.

In the case of `N=C(N)c1ccc(OCCCCCOc2ccc(C(=N)N)cc2)cc1` [PENTAMIDINE], the IC50 in series [1] was 0.006 µM.
